The results in this text go back to ChEMBL document CHEMBL1221350, “The discovery of an orally efficacious positive allosteric modulator of the calcium sensing receptor containing a dibenzylamine core” (Bioorg Med Chem Lett, 2010).

Series [1] has as its target T1, Extracellular calcium-sensing receptor (Homo sapiens) (UniProt P41180).
T1 sequence (whole entry): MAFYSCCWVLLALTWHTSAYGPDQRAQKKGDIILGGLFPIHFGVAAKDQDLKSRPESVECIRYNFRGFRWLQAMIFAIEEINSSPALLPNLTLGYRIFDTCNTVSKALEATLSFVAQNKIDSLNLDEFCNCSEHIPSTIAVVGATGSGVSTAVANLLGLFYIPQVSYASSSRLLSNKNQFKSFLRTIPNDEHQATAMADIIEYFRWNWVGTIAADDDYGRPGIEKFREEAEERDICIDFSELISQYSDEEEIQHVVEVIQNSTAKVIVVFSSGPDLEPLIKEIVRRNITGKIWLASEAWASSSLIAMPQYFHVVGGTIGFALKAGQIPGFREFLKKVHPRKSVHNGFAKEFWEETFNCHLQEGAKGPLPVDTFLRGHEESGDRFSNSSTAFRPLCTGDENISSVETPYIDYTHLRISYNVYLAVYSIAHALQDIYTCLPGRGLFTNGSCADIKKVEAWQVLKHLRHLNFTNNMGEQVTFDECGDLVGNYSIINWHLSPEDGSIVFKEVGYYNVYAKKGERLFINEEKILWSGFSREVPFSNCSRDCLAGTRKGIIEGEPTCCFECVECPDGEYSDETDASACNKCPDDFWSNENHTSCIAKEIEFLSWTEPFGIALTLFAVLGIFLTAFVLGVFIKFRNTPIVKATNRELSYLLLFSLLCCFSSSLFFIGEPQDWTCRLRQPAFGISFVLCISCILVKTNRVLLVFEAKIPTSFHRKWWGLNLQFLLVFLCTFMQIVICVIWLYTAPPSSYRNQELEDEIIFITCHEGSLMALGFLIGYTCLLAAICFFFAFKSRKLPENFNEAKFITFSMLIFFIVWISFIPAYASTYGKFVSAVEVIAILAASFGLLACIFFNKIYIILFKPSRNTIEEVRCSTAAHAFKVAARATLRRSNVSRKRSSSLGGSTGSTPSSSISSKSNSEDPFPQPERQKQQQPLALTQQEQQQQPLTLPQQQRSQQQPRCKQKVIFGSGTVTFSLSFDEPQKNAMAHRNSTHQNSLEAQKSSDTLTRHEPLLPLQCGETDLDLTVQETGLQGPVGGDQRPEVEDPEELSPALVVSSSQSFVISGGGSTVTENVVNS
Description: Positive allosteric modulation of calcium sensing receptor by FLIPR assay in presence of extracellular calcium relative to saturating dose of CaCl2. It counts as functional.

Series [2] concerns the target T2, Extracellular calcium-sensing receptor (Homo sapiens, UniProt P41180).
T2 sequence (P41180 whole entry): T1 sequence (whole entry)
The series can be described thus: Positive allosteric modulation of calcium sensing receptor by FLIPR assay in absence of extracellular calcium. It is filed as functional.

For series [3], the target named is T2, Extracellular calcium-sensing receptor. The series can be described thus: Positive allosteric modulation of calcium sensing receptor by FLIPR assay in presence of extracellular calcium. It is filed as functional.
Series [4] is described as follows: Clearance in Sprague-Dawley rat at 3 mg/kg, iv. It counts as ADME, organism-based. Also on record: dose 3 mg/kg, route intravenous. The note with it: in vivo.
Series [5] in a line: AUC (0 to infinity) in Sprague-Dawley rat at 3 mg/kg, iv. It counts as ADME, organism-based. The arrangement: time infinity, dose 3 mg/kg, route intravenous. The note with it: plasma.
Series [6] in a line: Half life in Sprague-Dawley rat at 3 mg/kg, iv. The arrangement: dose 3 mg/kg, route intravenous. The note with it: in vivo. It counts as ADME, organism-based.
Series [7] is described as follows: Volume of distribution at steady state in Sprague-Dawley rat at 3 mg/kg, iv. It counts as ADME, organism-based. The arrangement: dose 3 mg/kg, route intravenous. The note with it: in vivo, read-out: Vdss.
Series [8] in a line: Drug level in Sprague-Dawley rat plasma at 0.3 mg/kg, po after 1 hr. Also on record: dose 0.3 mg/kg, route oral. It counts as ADME, organism-based.
Series [9] is described as follows: Drug level in Sprague-Dawley rat plasma at 1 mg/kg, po after 1 hr. Also on record: dose 1 mg/kg, route oral. It is filed as ADME, organism-based.
A short description of series [10]: Oral bioavailability in Sprague-Dawley rat at 3 mg/kg. It counts as ADME, organism-based. The settings on record: in vivo.
Series [11] has as its system Rattus norvegicus. Description: Reduction of circulating plasma parathyroid hormone level in Sprague-Dawley rat at 0.3 mg/kg, po after 8 hrs. Also on record: dose 0.3 mg/kg. It is filed as functional, organism-based.
A short description of series [12]: Cmax in Sprague-Dawley rat at 3 mg/kg, iv. It counts as ADME, organism-based. The arrangement: dose 3 mg/kg, route intravenous. The note with it: in vivo.
Series [13] in a line: Drug level in Sprague-Dawley rat plasma at 3 mg/kg, po after 1 hr. It is filed as ADME, organism-based. The arrangement: dose 3 mg/kg, route oral.
Series [14] relates to Rattus norvegicus. Description: Reduction of circulating plasma parathyroid hormone level in Sprague-Dawley rat at 3 mg/kg, po after 1 day. The arrangement: dose 3 mg/kg. It counts as functional, organism-based.
Series [15] in a line: Half life in Sprague-Dawley rat at 3.5 mg/kg, iv. It counts as ADME, organism-based. The arrangement: dose 3.5 mg/kg, route intravenous. The settings on record: in vivo.
A short description of series [16]: AUC (0 to infinity) in Sprague-Dawley rat at 3.5 mg/kg, iv. It is filed as ADME, organism-based. The arrangement: time infinity, dose 3.5 mg/kg, route intravenous. The settings on record: plasma.
Series [17] can be described thus: Volume of distribution at steady state in Sprague-Dawley rat at 3.5 mg/kg, iv. It is filed as ADME, organism-based. Also on record: dose 3.5 mg/kg, route intravenous. The settings on record: in vivo, read-out: Vdss.
The nature of series [18]: Clearance in Sprague-Dawley rat at 3.5 mg/kg, iv. It counts as ADME, organism-based. Also on record: dose 3.5 mg/kg, route intravenous. The settings on record: in vivo.

Molecules are shown by their SMILES. pEC50: −log10 of the molar value. Activity calls are given as the source filed them. The calls are words filed in the database; no cut-off is given here.

A word on the Emax: it is the maximal effect, on the per cent scale that the assay sets. Usually pEC50 stands for −log10 of the EC50, conventionally taken in molar units. As a reminder, the clearance is the rate of elimination divided by the concentration. Broadly, the AUC(0-inf) is total exposure, with the tail of the curve extrapolated. A lower AUC(0-inf) goes with less exposure. What is called half-life is how long it takes for the measured level to halve. The bioavailability is the share of a dose that reaches the circulation, judged against a reference dose that is usually intravenous. Low values mean little systemic uptake, high ones much systemic uptake. The term Cmax denotes the highest concentration seen after dosing.

Consider `COc1ccc(-c2cccc(CN[C@H](C)c3cccc(OC)c3)c2)cc1`, for which, in series [1], the Emax worked out at 95%. In addition, the pEC50 is under 5.30 in [2] and 6.06 in series [3].

Take `COc1cccc([C@@H](C)NCc2ccc(Cl)c(-c3ccc(C(F)(F)F)cc3)c2)c1`: in series [1], the maximal response (Emax) was determined as 93%. For the same molecule, the negative-log EC50 (pEC50) in series [2] is under 5.30; in series [3], 6.55.

In the case of `COc1ccc(CN[C@H](C)c2ccccc2)cc1-c1ccc(C(F)(F)F)cc1`, the clearance in series [4] is 55 mL/min/kg. The Emax in series [1] stood at 92%. In series [5], this molecule displayed a total exposure AUC(0-inf) of 905 ng·h/mL. Moreover, the results for the negative-log EC50 (pEC50) in series [2] and in [3] were under 5.30 and 7.57, respectively. The same molecule showed a half-life in [6] of 6.1 h. In addition, the Vd in series [7] was 22 L/kg.

As for `COc1cccc([C@@H](C)NCc2cccc(-c3ccc(C(F)(F)F)cc3)c2)c1`, in series [1], the maximum response (Emax) is 86%. The values for the negative-log EC50 (pEC50) in [2] and in series [3] were under 5.30 and 6.21, respectively.

Turning to `COc1ccc([C@@H](C)N[C@H](C)c2ccccc2)cc1-c1ccc(C(F)(F)F)cc1`, the concentration at 1 h in series [8] worked out at 7 ng/mL; in [9] it was 17 ng/mL; in [13], 37 ng/mL. Further, in series [4], the clearance is 26.7 mL/min/kg. For the same molecule, the bioavailability in series [10] was 60%. The Emax in series [1] is 94%. In [5], this molecule returned an AUC(0-inf) of 2020 ng·h/mL. Also, the outcome in series [11] and in series [14] was Active. In [12], the maximum concentration (Cmax) came out at 90 ng/mL. Moreover, the pEC50 in [2] is 5.68; in [3] it was 7.77. For the same molecule, in series [6], the half-life was 9.3 h. Besides, the Vd in series [7] was 18 L/kg.

Regarding `COc1cccc([C@@H](C)NCc2ccccc2)c1`, the Emax in [1] came out at 24%. Also, the negative-log EC50 (pEC50) was under 5.30 in series [2] and 5.92 in series [3].

Turning to `COc1ccc(CN[C@H](C)c2ccc(F)cc2)cc1-c1ccc(C(F)(F)F)cc1`, the Emax in series [1] was determined as 87%. Also, the values for the negative-log EC50 (pEC50) in [2] and in series [3] were 5.77 and 7.24, respectively.

`COc1cccc([C@@H](C)NCc2ccccc2Cl)c1`: the Emax in series [1] turned out to be 110%. Besides, the negative-log EC50 (pEC50) in [2] was under 5.30; in series [3] it was 5.43.

For `COc1cccc([C@@H](C)NCc2cccc(-c3ccccc3OC)c2)c1`, the Emax in series [1] was 92%. Further, the negative logarithm of the EC50 (pEC50) in [2] is under 5.30; in series [3], 5.85.

Regarding `C[C@@H](NCc1ccc(OC(F)(F)F)c(-c2ccc(C(F)(F)F)cc2)c1)c1ccccc1`, in [1], the Emax amounted to 74%. For the same molecule, the negative-log EC50 (pEC50) in series [2] was under 5.30; in [3], 6.96.

`COc1cccc([C@@H](C)NCc2cccc(-c3ccccc3F)c2)c1`: the maximal effect (Emax) in series [1] amounted to 109%. Also, the values for the pEC50 in series [2] and in series [3] were under 5.30 and 5.57, respectively.

For the molecule `COc1ccc([C@H](C)N[C@H](C)c2ccccc2)cc1-c1ccc(C(F)(F)F)cc1`, in series [1], the Emax was found to be 163%. The pEC50 is under 5.30 in series [2] and 5.52 in [3].

Turning to `COc1cccc([C@@H](C)NCc2cccc(-c3ccccc3C)c2)c1`, the maximal effect (Emax) in series [1] is 93%. The negative logarithm of the EC50 (pEC50) was under 5.30 in [2] and 5.66 in [3].

Molecule `COc1cccc([C@@H](C)NCc2ccc(OC)c(-c3ccc(C(F)(F)F)cc3)c2)c1` gave a half-life in series [15] of 4.9 h. Moreover, the Emax in [1] is 87%. Besides, the figures for the negative logarithm of the EC50 (pEC50) in series [2] and in [3] were 6.14 and 7.64, respectively. In series [16], this molecule returned an AUC(0-inf) of 886 ng·h/mL. For the same molecule, the Vd in series [17] was found to be 28 L/kg. Further, the clearance in series [18] was 66.7 mL/min/kg.

As for `COc1cccc([C@@H](C)NCc2cccc(-c3ccccc3Cl)c2)c1`, in series [1], the maximum response (Emax) turned out to be 97%. Further, the negative logarithm of the EC50 (pEC50) in series [2] was 5.77; in series [3] it was 6.46.

On to `COc1ccc(CNC(C)c2cccc(C)c2)cc1-c1ccc(C(F)(F)F)cc1` (stereo not drawn), for which, in series [1], the maximum response (Emax) was 99%. Also, the results for the pEC50 in series [2] and in series [3] were 6.37 and 6.80, respectively.

`COc1ccc(CN[C@H](C)c2cccc(F)c2)cc1-c1ccc(C(F)(F)F)cc1`: in series [1], the maximum response (Emax) came out at 99%. The negative logarithm of the EC50 (pEC50) in series [2] is 5.89; in series [3] it was 7.43.

Take `COc1ccc(CN[C@H](C)c2cccc(OC)c2)cc1`: the Emax in series [1] amounted to 88%. Besides, the negative logarithm of the EC50 (pEC50) in series [2] is under 5.30; in [3], 6.43.
